The subject of one test is Jurkat cells. Put plainly: calcium signal (Fluo-4) of Jurkat cells in open microwells after stimulation. The test is classed as cell-based, human. The note with it: Fluo-4 labeled Jurkat cells. The procedure: Cells from the Jurkat cell line (human Leukemic T cells) were obtained from ATCC and cultured in RPMI 1640 medium supplemented with 10% inactivated FBS medium, 10 mM Hepes, 2 mM Ultraglutamine and 1 mM sodium pyruvate, 1% Penicillin/Streptomycin in 25 cm^2 flasks at 37° C. and 5% CO2.
For the assay in open microwells according to the present invention, Jurkat cells were labeled with Fluo-4 20 μM in HBSS, centrifuged and resuspended in serum-free medium (RPMI 1640 with 25 mM Hepes or HBSS) at a concentration of 1.6×10^6 cells/mL in 1.5 mL Eppendorf tubes used as input reservoirs for the open reversed microwell system. Subsequent to the deposition of Jurkat cells in the microwells (approximately 1-10 cells per microwell) and washing the channels with HBSS, the solutions containing Ionomycin (2 μg/mL) or OKT3 (10 μg/mL) are made to flow into specific microchannels of the open microwell system via peristaltic pump. The images were acquired by a camera connected to the microscope at a distance of 1 minute and processed by software developed in LabView, quantifying the dynamic performance of the same signal on each sample cell.

Test [1] has as its system leukemic cell lines (KG-1, Kasumi-1 and HL-60). Put plainly: dose/response analysis of leukemic cell lines to idarubicin in the open reversed microwell system. The note with it: leukemic cell line (one of KG-1, Kasumi-1, HL-60), FIG. 9C. The test is classed as cell-based.
Another test deals with SU-DHL-4 cancer cells. Put plainly: open well assay of Rituximab on SU-DHL-4 lymphoma cells (Calcein AM / PI, time-lapse). Format: cell-based. The note with it: Rituximab 10 μg/mL, hS 1%, PI 5 μM; images up to 60 min; versus CTRL; FIG. 11A. The procedure: Cells: SU-DHL-4 lymphoma cells and Raji cells were used (ATCC CCL-86). 3·10^5 cells/mL were cultured in RPMI medium supplemented with 10% FBS, 1% […]/streptomycin at 37° C., 95% RH, 5% CO2. The cells were amplified, dividing them when in confluence. PBMC were isolated from blood by centrifugation in gradient. Whole blood from healthy donors was collected into tubes treated with anticoagulants according to the directive “ethical principles and guidelines for the protection of humans in research”. Isolated PBMC were washed twice with 10 mL cold HBSS after lysis of red blood cells. The concentration of cells and their viability was determined with Trypan Blue on haemocytometer. The concentration was adjusted to 1 million cells/mL.
Different batches of SU-DHL-4 or Raji cells were harvested at the peak of their growth, washed with PBS and counted in a hemocytometer with Trypan Blue. The cell concentration was adjusted to 1 million cells/mL and they were labeled with Calcein AM (CAM) 5 nM for flow cytometry and 250 nM for the assay according to the present invention. […] Cell viability was finally assessed by PI and flow cytometry. […]
The images were acquired brightfield (BF) to evaluate the morphological characteristics and then in fluorescence to evaluate the signal in DAPI bands (ex: 360/40 nm, 460/50 nm), FITC (ex: 480/30 nm, em: 535/40 nm), TRITC (ex: 540/25 nm, em: 605/55 nm). […]

By IC50 is commonly meant the concentration that gives 50% inhibition.

Consider `C[C@H](CCC(=O)O)C[C@H](C)C[C@H](C)C(=O)/C=C(\O)[C@H](C)C[C@H](C)C/C=C/[C@@H](C)[C@@H](O)[C@@H](C)[C@@H](O)C[C@@H]1CC[C@@](C)([C@H]2CC[C@@](C)([C@@H](C)O)O2)O1` [Ionomycin], for which the “average increase of the signal with respect to the baseline” value with Jurkat cells (Ionomycin 2 μg/mL, series of 10 experiments) is 193%+/−139%.
`CC(=O)[C@]1(O)Cc2c(O)c3c(c(O)c2[C@@H](O[C@H]2C[C@H](N)[C@H](O)[C@H](C)O2)C1)C(=O)c1ccccc1C3=O` [idarubicin]: the values for the IC50 in test [1] (response level: resistant), in test [1] (response level: sensitive on the average) and in test [1] (response level: sensitive) were 213 nM, 21.8 nM and 4.9 nM, respectively.
For the molecule RTX: monoclonal antibody Rituximab, the “dead cells (PI, TRITC channel) in time-lapse images” value in the test on SU-DHL-4 cancer cells is “present only at T2 and T3 in the RTX group”.
For “OKT3: monoclonal antibody purified from OKT3 hybridoma culture supernatant”, the “increase of the signal peak compared to the baseline value” in the test on Jurkat cells (OKT3 10 μg/mL, average of a series of 3 experiments) is given as 178%+/−90%.
